Tests used:
[1] = Studies on pharmacokinetic properties in mice (plasma concentration by LC-MS/MS); assay type: in vivo; conditions: C57BL/6 male mice, dose not stated; for Exposure: intravenous or oral administration; for bioavailability: mouse, po, intragastric vs tail vein
Procedure: Example 2: Studies on Pharmacokinetic Properties
C57BL/6 male mice were used as subject animals in the study. The concentration of the drug in the plasma of mice injected intravenously or administrated orally with the test compound was quantified at different time points by using a LC/MS/MS method to evaluate the pharmacokinetic characteristics of the test drug in mice.
A clear solution of the test compound was injected into C57BL/6 mice (overnight-fasted, 7-10 weeks old) via the tail vein, and the test compound was intragastrically administered to C57BL/6 mice (overnight-fasted, 7-10 weeks old). Approximately 30 μL of blood was collected from each animal via the jugular vein or tail vein at 0.0833, 0.25, 0.5, 1, 2, 4, 6, 8 and 24 hours after administration, and placed in an anticoagulant tube supplemented with EDTA-K2. Centrifuged at 3000 g at 4° C. for 15 min, and the plasma was collected. The plasma concentration was determined by LC-MS/MS. The pharmacokinetic parameters were calculated by using the non-compartment model and linear logarithmic trapezoidal method using the pharmacokinetic software WinNonlin™ Version 6.3 (Pharsight, Mountain View, Calif.).

ASK1/MAP3K5 = ASK1/MAP3K5 (Homo sapiens (Human), UniProt Q99683); assay: Evaluation of in vitro enzyme activity (33P-ATP radiometric kinase assay, MBP substrate); assay type: biochemical; conditions: recombinant human full length GST-tagged ASK1 20 nM, MBP 20 μM
ASK1/MAP3K5, sequence (Q99683 whole entry): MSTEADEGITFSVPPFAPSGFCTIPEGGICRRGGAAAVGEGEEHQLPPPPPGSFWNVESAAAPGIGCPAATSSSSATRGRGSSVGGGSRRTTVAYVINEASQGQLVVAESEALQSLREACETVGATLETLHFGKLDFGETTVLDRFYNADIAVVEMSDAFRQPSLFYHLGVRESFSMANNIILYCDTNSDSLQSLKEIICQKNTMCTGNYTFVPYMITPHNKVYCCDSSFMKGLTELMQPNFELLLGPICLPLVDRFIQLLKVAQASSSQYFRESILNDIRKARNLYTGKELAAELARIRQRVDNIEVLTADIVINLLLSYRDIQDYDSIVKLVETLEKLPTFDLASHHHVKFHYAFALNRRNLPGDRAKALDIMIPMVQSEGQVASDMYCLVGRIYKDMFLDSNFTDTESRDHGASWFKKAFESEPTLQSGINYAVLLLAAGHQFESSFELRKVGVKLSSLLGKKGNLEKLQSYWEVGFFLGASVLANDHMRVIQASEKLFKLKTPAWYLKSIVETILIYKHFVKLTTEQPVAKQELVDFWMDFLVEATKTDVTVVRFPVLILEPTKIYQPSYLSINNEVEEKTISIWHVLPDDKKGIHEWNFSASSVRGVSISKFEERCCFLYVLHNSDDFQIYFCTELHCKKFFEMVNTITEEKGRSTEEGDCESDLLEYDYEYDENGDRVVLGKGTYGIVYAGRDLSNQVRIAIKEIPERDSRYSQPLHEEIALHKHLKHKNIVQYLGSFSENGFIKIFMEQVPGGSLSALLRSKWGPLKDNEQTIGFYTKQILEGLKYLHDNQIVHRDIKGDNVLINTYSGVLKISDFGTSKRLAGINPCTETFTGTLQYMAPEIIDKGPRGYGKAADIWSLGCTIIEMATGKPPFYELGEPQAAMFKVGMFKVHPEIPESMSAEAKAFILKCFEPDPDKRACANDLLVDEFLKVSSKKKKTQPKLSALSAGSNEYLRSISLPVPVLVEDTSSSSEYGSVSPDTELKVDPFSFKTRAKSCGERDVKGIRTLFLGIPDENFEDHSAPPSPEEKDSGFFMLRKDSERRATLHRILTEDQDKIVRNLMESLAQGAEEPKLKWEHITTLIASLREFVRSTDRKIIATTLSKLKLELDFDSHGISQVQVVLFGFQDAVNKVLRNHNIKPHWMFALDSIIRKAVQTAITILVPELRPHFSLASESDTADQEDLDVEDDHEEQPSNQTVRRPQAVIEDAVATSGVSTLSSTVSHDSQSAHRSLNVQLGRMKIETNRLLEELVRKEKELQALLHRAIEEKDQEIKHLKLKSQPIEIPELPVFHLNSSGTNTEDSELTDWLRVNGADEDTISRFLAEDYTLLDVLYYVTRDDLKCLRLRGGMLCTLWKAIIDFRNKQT
Procedure: Example 1: Evaluation of In Vitro Enzyme Activity
Base Reaction Buffer: 20 mM Hepes (pH 7.5), 10 mM MgCl2, 1 mM EGTA, 0.02% Brij35, 0.02 mg/ml BSA, 0.1 mM Na3VO4, 2 mM DTT, 1% DMSO
The test compound was formulated into a 10 mM stock solution in DMSO, which was diluted into 10 concentrations in 3-fold degression, and placed in a 384-well plate (Cyclic Olefin Copolymer LDV Echo®).
Kinase Name: ASK1/MAP3K5 (Invitrogen, Carlsbad, Calif.)
Type: Recombinant Human Full Length Protein, GST-tagged
Final concentration of the enzyme: 20 nM
Substrate: Myelin basic protein, MBP (Active Motif, Carlsbad, Calif.)
Final concentration of the substrate: 20 μM
1. The substrate was dissolved in a freshly prepared base reaction buffer.
2. A desired coenzyme was added to the above substrate solution.
3. The kinase was added to the substrate solution and mixed slowly.
4. The solution of the test compound in DMSO was added to the kinase reaction solution and incubated at room temperature for 20 minutes.
5. ^33P-ATP (specific activity of 10 μCi/μl) was added to the reaction solution to initiate the reaction.
6. Incubated at room temperature for 2 hours.
7. A small portion of the reactants was placed onto a P-81 ion exchange filter paper.
8. The filter paper was washed three times with 0.75% […] to wash off the unbound phosphate, and then the filter paper was dried.
9. The radioactivity remaining on the filter paper was determined.
10. Kinase activity data was expressed as the ratio of the kinase activity remaining in the test sample to the kinase activity in the vehicle (DMSO).
11. IC50 values and curve fits was obtained with Prism (GraphPad software).

CC(C)n1cnnc1-c1cccc(N2CCc3ccc(-n4cnc(C5CC5)c4)cc3C2=O)n1 [Example 001]
Exposure [1]: 69.652 µM·h | bioavailability [1]: 133% | IC50 (ASK1/MAP3K5): ≤ 50 nM

Cc1cc2c(cc1-n1cnc(C3CC3)c1)C(=O)N(c1cccc(-c3nncn3C(C)C)n1)CC2 [Example 002]
Exposure [1]: 29.277 µM·h | bioavailability [1]: 92% | IC50 (ASK1/MAP3K5): ≤ 50 nM

CC(C)n1cnnc1-c1cccc(-n2cc(F)c3ccc(-n4cnc(C5CC5)c4)cc3c2=O)n1 [Example 003]
Exposure [1]: 66.259 µM·h | bioavailability [1]: 214% | IC50 (ASK1/MAP3K5): ≤ 50 nM

CC(C)n1cnnc1-c1cccc(-n2ccc3ccc(-n4cnc(C5CC5)c4)cc3c2=O)n1 [Example 004]
IC50 (ASK1/MAP3K5): ≤ 50 nM

CC(C)n1cnnc1-c1cccc(N2Cc3ccc(-n4cnc(C5CC5)c4)cc3C2=O)n1 [Example 005]
IC50 (ASK1/MAP3K5): ≤ 50 nM

Cc1cc2ccn(-c3cccc(-c4nncn4C(C)C)n3)c(=O)c2cc1-n1cnc(C2CC2)c1 [Example 006]
IC50 (ASK1/MAP3K5): ≤ 50 nM

Cc1cc2c(F)cn(-c3cccc(-c4nncn4C(C)C)n3)c(=O)c2cc1-n1cnc(C2CC2)c1 [Example 007]
Exposure [1]: 29.007 µM·h | bioavailability [1]: 123% | IC50 (ASK1/MAP3K5): ≤ 50 nM

Cc1cc2c(cc1-n1cnc(C3CC3)c1)C(=O)N(c1cccc(-c3nnc4n3CCC4)n1)CC2 [Example 008]
Exposure [1]: 103.95 µM·h | bioavailability [1]: 98.5% | IC50 (ASK1/MAP3K5): ≤ 50 nM

Cc1cc2c(cc1-n1cnc(C3CC3)c1)C(=O)N(c1cccc(-c3nnc4n3CCCC4)n1)CC2 [Example 009]
Exposure [1]: 89.099 µM·h | bioavailability [1]: 115% | IC50 (ASK1/MAP3K5): ≤ 50 nM

O=C1c2cc(-n3cnc4c3CCCC4)ccc2CCN1c1cccc(-c2nnc3n2CCCC3)n1 [Example 010]
IC50 (ASK1/MAP3K5): 50 to 1000 nM

Cc1cc2ncn(-c3cccc(-c4nncn4C(C)C)n3)c(=O)c2cc1-n1cnc(C2CC2)c1 [Example 011]
Exposure [1]: 31.832 µM·h | bioavailability [1]: 108% | IC50 (ASK1/MAP3K5): ≤ 50 nM

Cc1nc(C2CC2)cn1-c1ccc2c(c1)C(=O)N(c1cccc(-c3nnc4n3CCCC4)n1)CC2 [Example 012]
IC50 (ASK1/MAP3K5): > 1000 nM

CC(C)n1cnnc1-c1cccc(-n2cnc3ccc(-n4cnc(C5CC5)c4)cc3c2=O)n1 [Example 013]
IC50 (ASK1/MAP3K5): ≤ 50 nM

Cc1cc2ncn(-c3cccc(-c4nnc5n4CCCC5)n3)c(=O)c2cc1-n1cnc(C2CC2)c1 [Example 014]
IC50 (ASK1/MAP3K5): 50 to 1000 nM

Cc1cc2ncn(-c3cccc(-c4nnc(C)n4C)n3)c(=O)c2cc1-n1cnc(C2CC2)c1 [Example 015]
IC50 (ASK1/MAP3K5): > 1000 nM

Cc1cc2ncn(-c3cccc(-c4nnc(C)n4C(C)C)n3)c(=O)c2cc1-n1cnc(C2CC2)c1 [Example 016]
IC50 (ASK1/MAP3K5): 50 to 1000 nM

Cc1cc2c(F)cn(-c3cccc(-c4nnc5n4CCCC5)n3)c(=O)c2cc1-n1cnc(C2CC2)c1 [Example 017]
IC50 (ASK1/MAP3K5): 50 to 1000 nM

Cc1cc2ncn(-c3cccc(-c4nncn4C4CC4)n3)c(=O)c2cc1-n1cnc(C2CC2)c1 [Example 018]
Exposure [1]: 59.568 µM·h | bioavailability [1]: 111% | IC50 (ASK1/MAP3K5): ≤ 50 nM

Cc1cc2ncn(-c3cccc(-c4nncn4CC(F)(F)F)n3)c(=O)c2cc1-n1cnc(C2CC2)c1 [Example 019]
IC50 (ASK1/MAP3K5): ≤ 50 nM

Cc1nnc(-c2cccc(-n3cnc4cc(C)c(-n5cnc(C6CC6)c5)cc4c3=O)n2)o1 [Example 020]
IC50 (ASK1/MAP3K5): > 1000 nM

CC(C)n1cnnc1-c1cccc(-n2cnc3cc(Cl)c(-n4cnc(C5CC5)c4)cc3c2=O)n1 [Example 021]
IC50 (ASK1/MAP3K5): ≤ 50 nM

CCc1cc2ncn(-c3cccc(-c4nncn4C(C)C)n3)c(=O)c2cc1-n1cnc(C2CC2)c1 [Example 022]
IC50 (ASK1/MAP3K5): ≤ 50 nM

CC(C)n1cnnc1-c1cccc(-n2cnc3cc(-c4ccccc4)c(-n4cnc(C5CC5)c4)cc3c2=O)n1 [Example 023]
IC50 (ASK1/MAP3K5): ≤ 50 nM

CC(C)n1cnnc1-c1cccc(-n2cnc3cc(-c4cccnc4)c(-n4cnc(C5CC5)c4)cc3c2=O)n1 [Example 024]
IC50 (ASK1/MAP3K5): ≤ 50 nM

CC(C)n1cnnc1-c1cccc(-n2cnc3cc(-c4ccsc4)c(-n4cnc(C5CC5)c4)cc3c2=O)n1 [Example 025]
IC50 (ASK1/MAP3K5): ≤ 50 nM

Cc1cc2ncn(-c3cccc(-c4nnc5n4CCC5)n3)c(=O)c2cc1-n1cnc(C2CC2)c1 [Example 028]
IC50 (ASK1/MAP3K5): 50 to 1000 nM

COc1nc2cc(C)c(-n3cnc(C4CC4)c3)cc2c(=O)n1-c1cccc(-c2nncn2C(C)C)n1 [Example 029]
IC50 (ASK1/MAP3K5): > 1000 nM

COc1cc2ncn(-c3cccc(-c4nncn4C(C)C)n3)c(=O)c2cc1-n1cnc(C2CC2)c1 [Example 031]
IC50 (ASK1/MAP3K5): ≤ 50 nM

Cc1ccc(-c2cc3ncn(-c4cccc(-c5nncn5C(C)C)n4)c(=O)c3cc2-n2cnc(C3CC3)c2)cn1 [Example 032]
IC50 (ASK1/MAP3K5): ≤ 50 nM

COc1ccc(-c2cc3ncn(-c4cccc(-c5nncn5C(C)C)n4)c(=O)c3cc2-n2cnc(C3CC3)c2)cn1 [Example 033]
Exposure [1]: 20.356 µM·h | bioavailability [1]: 148% | IC50 (ASK1/MAP3K5): ≤ 50 nM

CC(C)n1cnnc1-c1cccc(-n2cnc3cc(-c4ccc(N)nc4)c(-n4cnc(C5CC5)c4)cc3c2=O)n1 [Example 034]
IC50 (ASK1/MAP3K5): ≤ 50 nM

COCCOc1cc2ncn(-c3cccc(-c4nncn4C(C)C)n3)c(=O)c2cc1-n1cnc(C2CC2)c1 [Example 035]
IC50 (ASK1/MAP3K5): ≤ 50 nM

CC(C)n1cnnc1-c1cccc(-n2cnc3cc(O)c(-n4cnc(C5CC5)c4)cc3c2=O)n1 [Example 037]
IC50 (ASK1/MAP3K5): ≤ 50 nM

CC(C)n1cnnc1-c1cccc(-n2cnc3cc(OCC(N)=O)c(-n4cnc(C5CC5)c4)cc3c2=O)n1 [Example 038]
IC50 (ASK1/MAP3K5): ≤ 50 nM

CNC(=O)COc1cc2ncn(-c3cccc(-c4nncn4C(C)C)n3)c(=O)c2cc1-n1cnc(C2CC2)c1 [Example 039]
IC50 (ASK1/MAP3K5): ≤ 50 nM

CC(C)n1cnnc1-c1cccc(-n2cnc3cc(OCCCS(C)(=O)=O)c(-n4cnc(C5CC5)c4)cc3c2=O)n1 [Example 040]
IC50 (ASK1/MAP3K5): ≤ 50 nM

CC(C)n1cnnc1-c1cccc(-n2cnc3cc(OCCO)c(-n4cnc(C5CC5)c4)cc3c2=O)n1 [Example 041]
IC50 (ASK1/MAP3K5): ≤ 50 nM

Cc1cc2ncn(-c3csc(-c4nncn4C(C)C)c3)c(=O)c2cc1-n1cnc(C2CC2)c1 [Example 042]
IC50 (ASK1/MAP3K5): > 1000 nM

Cc1cc2ncn(-c3cccc(-c4nncn4C(C)C)c3)c(=O)c2cc1-n1cnc(C2CC2)c1 [Example 043]
IC50 (ASK1/MAP3K5): > 1000 nM

Cc1cc2ncn(-c3cccc(-c4nncn4C4CCCC4)n3)c(=O)c2cc1-n1cnc(C2CC2)c1 [Example 044]
IC50 (ASK1/MAP3K5): ≤ 50 nM

CCC(CC)n1cnnc1-c1cccc(-n2cnc3cc(C)c(-n4cnc(C5CC5)c4)cc3c2=O)n1 [Example 045]
IC50 (ASK1/MAP3K5): ≤ 50 nM

Cc1cc2ncn(-c3csc(-c4nncn4C(C)C)n3)c(=O)c2cc1-n1cnc(C2CC2)c1 [Example 046]
IC50 (ASK1/MAP3K5): ≤ 50 nM

Cc1cc2ncn(-c3cccc(-c4nncn4C(C)(C)C)n3)c(=O)c2cc1-n1cnc(C2CC2)c1 [Example 047]
IC50 (ASK1/MAP3K5): ≤ 50 nM

Cc1cc2ncn(-c3cccc(-c4nncn4C4CCOCC4)n3)c(=O)c2cc1-n1cnc(C2CC2)c1 [Example 048]
IC50 (ASK1/MAP3K5): 50 to 1000 nM

Cc1cc2ncn(-c3cccc(-c4nncn4C4CCC(F)(F)CC4)n3)c(=O)c2cc1-n1cnc(C2CC2)c1 [Example 049]
IC50 (ASK1/MAP3K5): 50 to 1000 nM

Cc1cc2ncn(-c3cccc(-c4nncn4C(C)C)n3)c(=O)c2cc1-n1cnc(-c2ccccc2)c1 [Example 050]
IC50 (ASK1/MAP3K5): ≤ 50 nM

Cc1cc2ncn(-c3cccc(-c4nncn4C4CCCCC4)n3)c(=O)c2cc1-n1cnc(C2CC2)c1 [Example 051]
IC50 (ASK1/MAP3K5): ≤ 50 nM

Cc1cc2ncn(-c3cccc(-c4nncn4C(C)C)n3)c(=O)c2cc1-c1ccc(C(C)C)nc1 [Example 052]
IC50 (ASK1/MAP3K5): ≤ 50 nM

CC(C)n1cnnc1-c1cccc(-n2cnc3cc(OCCCF)c(-n4cnc(C5CC5)c4)cc3c2=O)n1 [Example 054]
IC50 (ASK1/MAP3K5): ≤ 50 nM

CC(C)n1cnnc1-c1cccc(-n2cnc3cc(N(C)C)c(-n4cnc(C5CC5)c4)cc3c2=O)n1 [Example 055]
IC50 (ASK1/MAP3K5): ≤ 50 nM

CC(C)n1cnnc1-c1cccc(-n2cnc3cc(N4CCOCC4)c(-n4cnc(C5CC5)c4)cc3c2=O)n1 [Example 056]
IC50 (ASK1/MAP3K5): ≤ 50 nM

Cc1cc2ncn(-c3cccc(-c4nncn4C(C)CO)n3)c(=O)c2cc1-n1cnc(C2CC2)c1 (centres unmarked) [Example 057]
IC50 (ASK1/MAP3K5): ≤ 50 nM

CC(C)n1cnnc1-c1cccc(-n2cnc3cc(OCC4COC4)c(-n4cnc(C5CC5)c4)cc3c2=O)n1 [Example 058]
IC50 (ASK1/MAP3K5): ≤ 50 nM
